# Measured values: patent US5516775A, “Further use of pyrimidine derivatives” (Ciba-Geigy Corporation, priority 1992, dated 1996)
# Legend:
# [1] = system: Human T24 bladder carcinoma cells; test: Inhibition of the growth of human T24 bladder carcinoma cells; assay type: cell-based; details: 120 h, 5 days incubation, methylene blue staining, OD 665 nm
# Procedure: In this assay, the inhibitory action of compounds of formula I on the growth of human T24 bladder carcinoma cells is determined. The IC50 values obtained for the compounds of formula I are from c. 1 to 10 μmol/liter.
# Human T24 bladder carcinoma cells are incubated in "Eagle's minimal essential medium", to which 5% (v/v) foetal calf serum has been added, in a humidified incubator at 37° C. and 5 percent by volume CO2 in air. The carcinoma cells (1000-1500) are inoculated in 96-well microtitre plates and incubated overnight under the stated conditions. The test compound is added in serial dilutions on day 1. The plates are incubated for 5 days under the stated conditions. During this time the control cultures undergo at least 4 cell divisions. After incubation, the cells are fixed with a 3.3% (g/v) aqueous solution of glutaraldehyde, washed with water and stained with a 0.05% (weight/volume) aqueous solution of methylene blue. After washing, the stain is eluted with 3% (g/v) aqueous hydrochloric acid. Afterwards, the optical density (OD) per well, which is directly proportional to the number of cells, is measured with a photometer (Titertek multiskan) at 665 nm. The IC50 values are computed by a computer system, using the formula [formula] The IC50 values are defined as that active compound concentration at which the number of cells per well at the end of the incubation period is only 50% of the number of cells in the control cultures. The following IC50 values are obtained in this assay for the compounds of formula I: […]
# [2] = molecular target: Protein kinase C from pig brain; test: Determination of the inhibitory action on protein kinase C; assay type: biochemical; details: method of Fabbro et al., read-out: IC50, inhibition of protein kinase C
# Procedure: Protein kinase C from pig brain is used to determine the inhibitory action on protein kinase C. The inhibitory action of the compounds of formula I on protein kinase C is determined by the method of D. Fabbro et al, as described in Example 2. […] 0.1 to 30 μmol/liter.
# Protein kinase C from pig brain purified in accordance with the procedure described by T. Uchida and C. R. Filbum in J. Biol. Chem. 259, 12311-4 (1984) is used to determine the inhibitory action on protein kinase C. The inhibitory action of the compounds of formula I on protein kinase C is determined by the method of D. Fabro et al., Arch. Biochem. Biophys. 239, 102-111 (1985). The following IC50 values are obtained in this assay for the compounds of formula I: […]
# [3] = system: human T24 bladder carcinoma; test: Antitumour activity in mice (T24 bladder carcinoma transplant); assay type: in vivo, female Balb/c nude mice; details: once daily for 15 days, measured 24 hours after last administration
# Procedure: In the assay described in Example 3, the compounds of formula I, when administered perorally or intraperitoneally, reduce tumour volume to about 35-70% of tumour volume in control animals treated with placebo.
# On day 0 a c. 25 mg piece of human T24 bladder carcinoma is transplanted subcutaneously using Trokar under operable "forene" narcosis on female Balb/c nude mice (Balb/c(Balb/c nu/nu, Bomholdgaard, Denmark; six mice per group). On day 6 after the tumour transplantation the average tumour volume is 120-140 mm^3 and treatment is commenced. The treatment consists in administering perorally or intraperitoneally once daily over 15 successive days, i.e. altogether 15 times, 25 ml/kg of the following formulation. This formulation is prepared as follows: 16 mg of a compound of formula I are dissolved in 0.4 ml of dimethyl sulfoxide (100% ). Then 0.05 ml of Tween 80 is added to this solution and the batch is mixed. Then 7.6 ml of a 0.9% aqueous solution of sodium chloride are added and the batch is thoroughly mixed. This formulation is prepared fresh daily. The control animals receive a placebo. The placebo is the same formulation without compound of formula I.
# 24 hours after the last administration, the tumour volume is measured and the ratio [%] of the tumour volume T/C is determined in the treated animals (T) and the control animals treated with placebo (C).
Compound,IC50 [1] [µM],IC50 [2] [µM],"ratio T/C of tumour volume ([3]; intraperitoneal, 25 mg) [%]","ratio T/C of tumour volume ([3]; intraperitoneal, 50 mg) [%]","ratio T/C of tumour volume ([3]; peroral, 25 mg) [%]","ratio T/C of tumour volume ([3]; peroral, 50 mg) [%]"
"c1cncc(-c2ccnc(Nc3cccc(-n4ccnc4)c3)n2)c1 [compound A, N-(3-1H-imidazol-1-ylphenyl)-4-(3-pyridyl)-2-pyrimidinamine]",2.5,8.8,–,–,–,–
"NCCCNC(=O)c1cccc(Nc2nccc(-c3cccnc3)n2)c1 [compound F, N-(3-[3-aminopropylaminocarbonyl]phenyl)-4-(3-pyridyl)-2-pyrimidinamine]",–,28,–,–,–,–
"Nc1cccc(Nc2nccc(-c3cccnc3)n2)c1 [compound D, N-(3-aminophenyl)-4-(3-pyridyl)-2-pyrimidinamine]",7.2,28,–,–,–,–
"COC(=O)c1cccc(Nc2nccc(-c3cccnc3)n2)c1 [compound E, N-(3-methoxycarbonylphenyl)-4-(3-pyridyl)-2-pyrimidinamine]",–,26,–,–,–,–
"FC(F)(F)c1cccc(Nc2nccc(-c3cccnc3)n2)c1 [compound B, N-(3-trifluoromethylphenyl)-4-(3-pyridyl)-2-pyrimidinamine]",7.4,2.5,54,46,68,53
"Clc1cccc(Nc2nccc(-c3cccnc3)n2)c1 [compound C, N-(3-chlorophenyl)-4-(3-pyridyl)-2-pyrimidinamine]",5.2,6.3,–,–,–,–
